≈ marks a conversion by molar mass, not a printed value.
Test: Solubility (maximum soluble amount) in acetonitrile solution including 0.1 M TBAPF6
Format: physicochemical
Settings: for solubility: acetonitrile solution including 0.1 M TBAPF6, organic solvent or mixture, maximum soluble amount in acetonitrile solution including TBAPF6 at 0.1 M
Experimental: Each of the phenazine-based compounds provided according to Example 1 and Comparative Example 1 was dissolved in an acetonitrile solution including TBAPF6 at a concentration of 0.1 M, and the maximum soluble amounts of the phenazine-based compounds were identified, and the results are shown in the following Table 1.

SMILES	solubility [mM]	fold higher solubility in a non-aqueous solvent than DMPZ (non-aqueous solvent, relative to DMPZ)
CN1c2ccccc2N(C)c2ccccc21 [Comparative Example 1, 5,10-dimethyl-5,10-dihydrophenazine, reference compound]	50 (≈ 10.5 mg/mL)	
COCCN1c2ccccc2N(CCOC)c2ccccc21 [Example 1, 5,10-bis(2-methoxyethyl)-5,10-dihydrophenazine]	500 (≈ 149 mg/mL)	at least 10 fold

— patent publication US20220048869A1, “PHENAZINE-BASED COMPOUND, ELECTROLYTIC LIQUID COMPRISING SAME FOR REDOX FLOW BATTERY, AND REDOX FLOW BATTERY” (LOTTE CHEMICAL CORPORATION, priority 2018, published 2022)
